Experimental data as given in article PMC4838890, “Dynamic and flexible H3K9me3 bridging via HP1β dimerization establishes a plastic state of condensed chromatin” (Nature Communications, 2016).

Legend:
[1] = test system: immobilized H3 tail peptides, mono- and oligonucleosomes; experiment: Pull-down, H3 tail peptides, mono- and oligonucleosomes; format: binding, Xenopus laevis; conditions: immobilized on streptavidin beads, 4°C
Method: 4 μg C-terminally biotinylated histone H3 peptides (aa 1–20) or 1 μg of biotinylated nucleosomes or oligonucleosomal arrays were incubated with 40 μl Streptavidin MagnaSphere Paramagmetic beads (Promega, Mannheim, Germany) in 350 μl binding buffer (10 mM triethanolamine (pH 7.5), 150 mM NaCl, 0.1 mM EDTA, 0.1% (v/v) Triton-X100) supplemented with 1 mg ml^−1 BSA for 2.5 h at RT. Unbound material was removed by three washes with 0.5 ml binding buffer. Charged beads were then incubated with 100 pmol recombinant protein in 350 μl binding buffer for 1 h at 4°C on a rotator. Beads were washed three times with 0.5 ml binding buffer for 3 min per wash at 4°C. Bound proteins were eluted in 20 μl 1 × SDS loading buffer and by boiling for 5 min.
Supplementary Table 1: Summary of conditions used in the different experiments of this study. experiment result modification template Temp. [NaCl] [MgCl2] […]
chromatin Fig. 1e,f; Fig. S1f-h; H3K9me3 oligo- 4 150 5 coprecipitation Fig. S2b nucleosomes
Fig. S7d,f; Fig.S9c nucleosomes […]
chromatin sedimentation Fig. 4a; H3K9me3 oligo- 4 150 0
(single point) Fig. S3b nucleosomes […]
chromatin sedimentation. oligo-(titration) Fig. 3a H3K9me3 nucleosomes 4 150 0

self-dimerization = conditions: ref [9][20]; read-out: dimerization Kd in solution; cited from earlier work
Method: To test this hypothesis, we analysed an hHP1β chimera where the CSD was replaced with an unrelated dimerization module. We used glutathione S-transferase (GST), as it is known to form dimers of similar strength as hHP1β WT in solution (Kd<1 nM)[9][20].

In the case of “hHP1β WT: recombinant human heterochromatin protein 1β (GenBank NM_001127228), 185 aa”, the “retention on H3K9me3 versus unmodified matrices” value [1] is listed as “retained much more efficiently on all three matrices in the presence of H3K9me3” and the Kd (self-dimerization) is listed as less than 1 nM.
